Values quoted from earlier work in patent US6211152A, “Formulations for peptide release” (Peptech Limited, priority 1995, dated 2001).

Key:
dogs/bitches = conditions: overdosing dogs/bitches
prostate cancer in rats = conditions: microencapsulated form, controlled dose over 30 days, vs daily subcutaneous equivalent or double doses of free peptide

| Compound | period of shut down of reproductive function (dogs/bitches) | suppressing serum testosterone levels and prostate tumour weight (prostate cancer in rats) |
| --- | --- | --- |
| CC(C)C[C@H](NC(=O)[C@@H](Cc1ccc2ccccc2c1)NC(=O)[C@H](Cc1ccc(O)cc1)NC(=O)[C@H](CO)NC(=O)[C@H](Cc1c[nH]c2ccccc12)NC(=O)[C@H](Cc1c[nH]cn1)NC(=O)[C@@H]1CCC(=O)N1)C(=O)N[C@@H](CCCNC(=N)N)C(=O)N1CCC[C@H]1C(=O)NCC(N)=O [nafarelin] | three to eighteen |  |
| [D Trp^6 ] LH-RH |  | more effective |
